Measured values published in ChEMBL document CHEMBL6092193, “Identification of furo[2,3-d]pyrimidin-4-ylsulfanyl-1,3,4-thiadiazole derivatives as novel FLT3-ITD inhibitors” (Eur J Med Chem, 2024).
The source made the active and inactive calls. No cut-off for these calls is given here.

Key:
MV4-11 [1] = assay: Induction of cell cycle arrest in human MV4-11 cells assessed as proportion of cells at G2/M phase at 3.2 nM incubated for 24 hrs by PI staining based flow cytometry (reference value: 10%); type: functional
MV4-11 [2] = assay: Induction of cell cycle arrest in human MV4-11 cells assessed as proportion of cells at subG1 phase at 3.2 nM incubated for 24 hrs by PI staining based flow cytometry (reference value: 10.44%); type: functional
MV4-11 [3] = type: functional, Homo sapiens; conditions: dose 16 nM; time 24 hrs
MV4-11 [4] = assay: Induction of cell cycle arrest in human MV4-11 cells assessed as proportion of cells at S phase at 16 nM incubated for 24 hrs by PI staining based flow cytometry (reference value: 25.97%); type: functional
MV4-11 [5] = assay: Induction of cell cycle arrest in human MV4-11 cells assessed as proportion of cells at G2/M phase at 80 nM incubated for 24 hrs by PI staining based flow cytometry (reference value: 10%); type: functional
MV4-11 [6] = assay: Induction of cell cycle arrest in human MV4-11 cells assessed as proportion of cells at subG1 phase at 80 nM incubated for 24 hrs by PI staining based flow cytometry (reference value: 10.44%); type: functional
MV4-11 [7] = type: functional, Homo sapiens; conditions: dose 400 nM; time 24 hrs
MV4-11 [8] = assay: Induction of cell cycle arrest in human MV4-11 cells assessed as proportion of cells at G2/M phase at 400 nM incubated for 24 hrs by PI staining based flow cytometry (reference value: 10%); type: functional
HL-60 [9] = assay: Induction of cell cycle arrest in human HL-60 cells assessed as proportion of cells at S phase at 3.2 nM incubated for 24 hrs by PI staining based flow cytometry (reference value: 36.12%); type: functional
HL-60 [10] = assay: Induction of cell cycle arrest in human HL-60 cells assessed as proportion of cells at G2/M phase at 16 nM incubated for 24 hrs by PI staining based flow cytometry (reference value: 14.52%); type: functional
HL-60 [11] = assay: Induction of cell cycle arrest in human HL-60 cells assessed as proportion of cells at G1 phase at 80 nM incubated for 24 hrs by PI staining based flow cytometry (reference value: 49.36%); type: functional
HL-60 [12] = assay: Induction of cell cycle arrest in human HL-60 cells assessed as proportion of cells at S phase at 80 nM incubated for 24 hrs by PI staining based flow cytometry (reference value: 36.12%); type: functional
HL-60 [13] = assay: Induction of cell cycle arrest in human HL-60 cells assessed as proportion of cells at G2/M phase at 80 nM incubated for 24 hrs by PI staining based flow cytometry (reference value: 14.52%); type: functional
HL-60 [14] = assay: Induction of cell cycle arrest in human HL-60 cells assessed as proportion of cells at subG1 phase at 80 nM incubated for 24 hrs by PI staining based flow cytometry (reference value: 6.94%); type: functional
HL-60 [15] = assay: Induction of cell cycle arrest in human HL-60 cells assessed as proportion of cells at G1 phase at 400 nM incubated for 24 hrs by PI staining based flow cytometry (reference value: 49.36%); type: functional
HL-60 [16] = assay: Induction of cell cycle arrest in human HL-60 cells assessed as proportion of cells at S phase at 400 nM incubated for 24 hrs by PI staining based flow cytometry (reference value: 36.12%); type: functional
[17] = biological target: Receptor-type tyrosine-protein kinase FLT3 (Homo sapiens) (UniProt P36888); assay: Inhibition of FLT3 in human MV4-11 cells assessed as inhibition of FLT3 autophosphorylation at Tyr589/591 residues incubated for 1 hr by immunoblot analysis; type: cell-based; conditions: dose lower […], dose upper 2000.0 nM
[18] = biological target: Receptor-type tyrosine-protein kinase FLT3 (Homo sapiens) (UniProt P36888); assay: Inhibition of FLT3 in human MV4-11 cells assessed as inhibition of STAT5 phosphorylation at Tyr694 residue incubated for 1 hr by immunoblot analysis; type: cell-based; conditions: dose lower […], dose upper 2000.0 nM
[19] = biological target: Receptor-type tyrosine-protein kinase FLT3 (Homo sapiens) (UniProt P36888); assay: Inhibition of FLT3 in human MV4-11 cells assessed as inhibition of ERK1/2 phosphorylation at Thr202/Tyr204 residues incubated for 1 hr by immunoblot analysis; type: cell-based; conditions: dose lower […], dose upper 2000.0 nM
[20] = test system: Receptor-type tyrosine-protein kinase FLT3 (Homo sapiens), P36888 [UNDEFINED MUTATION]; assay: Inhibition of FLT3-ITD mutant (unknown origin) expressed in mouse BaF3 cells assessed as inhibition of FLT3 autophosphorylation at Tyr589/591 residues at 16 to 2000 nM incubated for 2 hrs by immunoblot analysis; type: cell-based; conditions: dose lower […], dose upper 2000.0 nM
[21] = test system: Receptor-type tyrosine-protein kinase FLT3 (Homo sapiens), P36888 [UNDEFINED MUTATION]; type: cell-based; conditions: BaF3, dose lower […], dose upper 2000.0 nM, time 2.0 hrs
[22] = biological target: T1, Receptor-type tyrosine-protein kinase FLT3 (Homo sapiens, UniProt P36888)
T1 sequence (P36888 whole entry): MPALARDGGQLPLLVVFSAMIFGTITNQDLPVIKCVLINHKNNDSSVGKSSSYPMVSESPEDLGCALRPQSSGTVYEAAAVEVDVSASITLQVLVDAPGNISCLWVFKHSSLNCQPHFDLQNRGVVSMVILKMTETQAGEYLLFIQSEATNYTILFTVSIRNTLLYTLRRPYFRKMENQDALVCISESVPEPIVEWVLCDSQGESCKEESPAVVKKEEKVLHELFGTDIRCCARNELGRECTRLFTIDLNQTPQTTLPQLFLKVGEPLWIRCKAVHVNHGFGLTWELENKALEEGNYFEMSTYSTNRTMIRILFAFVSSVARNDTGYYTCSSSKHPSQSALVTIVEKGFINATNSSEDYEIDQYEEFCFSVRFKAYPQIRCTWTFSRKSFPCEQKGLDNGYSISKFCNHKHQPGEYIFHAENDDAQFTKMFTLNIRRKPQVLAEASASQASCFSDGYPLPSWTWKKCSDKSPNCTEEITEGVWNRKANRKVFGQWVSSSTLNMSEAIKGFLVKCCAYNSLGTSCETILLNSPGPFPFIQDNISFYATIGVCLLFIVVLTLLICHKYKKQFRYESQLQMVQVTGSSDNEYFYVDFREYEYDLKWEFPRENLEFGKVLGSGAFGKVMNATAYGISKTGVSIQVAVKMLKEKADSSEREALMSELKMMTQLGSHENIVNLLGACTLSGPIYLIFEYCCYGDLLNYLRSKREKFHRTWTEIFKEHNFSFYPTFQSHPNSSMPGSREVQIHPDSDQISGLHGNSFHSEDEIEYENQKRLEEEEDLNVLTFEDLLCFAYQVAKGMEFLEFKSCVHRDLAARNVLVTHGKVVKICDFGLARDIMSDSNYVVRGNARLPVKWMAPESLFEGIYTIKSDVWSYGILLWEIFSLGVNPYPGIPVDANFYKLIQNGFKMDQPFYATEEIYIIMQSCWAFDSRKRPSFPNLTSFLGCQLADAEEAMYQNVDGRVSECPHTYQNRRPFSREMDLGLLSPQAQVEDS
Description: Inhibition of NanoLuc-fused FLT3 (unknown origin) transfected in HEK293 cells incubated for 2 hrs by NanoBRET target engagement assay

HL-60 [23] = assay: cells; conditions: Homo sapiens, HL-60, 72 h
Description: Antiproliferative activity against human HL-60 cells assessed as inhibition of cell growth incubated for 72 hrs by resazurin dye based fluorescence analysis

Kasumi 1 = assay: cells; conditions: Homo sapiens, Kasumi 1, 72 h
Description: Antiproliferative activity against human Kasumi 1 cells harboring KIT N822K mutant assessed as inhibition of cell growth incubated for 72 hrs by resazurin dye based fluorescence analysis

EOL1 = assay: cells; conditions: Homo sapiens, EOL1, 72 h
Description: Antiproliferative activity against human EOL1 cells harboring FIP1L1-PDGFRA fusion gene assessed as inhibition of cell growth incubated for 72 hrs by resazurin dye based fluorescence analysis

With COc1ccc(NC(=O)Nc2nnc(Sc3ncnc4oc(-c5ccccc5)cc34)s2)cc1 the Activity (MV4-11 [1]) was 6.22%, the Activity (MV4-11 [2]) was 12.84% and the Activity (MV4-11 [3]) was 89.29%. It also gave an Activity (MV4-11 [4]) of 8.07%, an Activity (MV4-11 [5]) of 1.23% and an Activity (MV4-11 [6]) of 26.76%. It also gave an Activity (MV4-11 [7]) of 94.09%, an Activity (MV4-11 [8]) of 1.43% and an Activity (HL-60 [9]) of 37.01%. For the same compound, the Activity (HL-60 [10]) was 13.57%, the Activity (HL-60 [11]) was 49.29% and the Activity (HL-60 [12]) was 37.03%. It also gave an Activity (HL-60 [13]) of 13.68%, an Activity (HL-60 [14]) of 8.17% and an Activity (HL-60 [15]) of 50.35%. The Activity (HL-60 [16]) was 35.91%, the inhibition [17] was “Dose-dependent-effect” and the inhibition [18] was “Dose-dependent-effect”. The inhibition [19] was “Dose-dependent-effect”, the inhibition [20] was “Active” and the inhibition [21] was “Active”. It also gave an IC50 [22] of 174 nM, a GI50 (HL-60 [23]) of over 10000 nM and a GI50 (Kasumi 1) of 3060 nM. The GI50 (EOL1) was 39 nM.
